Results published in article PMC11166204, “Mapping the global interactome of the ARF family reveals spatial organization in cellular signaling pathways” (Journal of Cell Science, 2024).
Like-named read-outs stand apart in the source and are kept apart here.

What was measured:
Format in all cases: binding
ARL11 = molecular target: T1, ARL11 (Homo sapiens, UniProt Q969Q4); assay: ITC; 1H-15N HSQC NMR
T1 construct: amino acids 1–196 (GST tag cleaved with thrombin)

ARL10 [1] = molecular target: T2, ARL10 (Homo sapiens, UniProt Q8N8L6); assay: co-purified nucleotide by ion-pair reversed-phase HPLC
T2 construct: GFP-tagged, purified from HEK293T cells
T2 sequence (Q8N8L6 1-244): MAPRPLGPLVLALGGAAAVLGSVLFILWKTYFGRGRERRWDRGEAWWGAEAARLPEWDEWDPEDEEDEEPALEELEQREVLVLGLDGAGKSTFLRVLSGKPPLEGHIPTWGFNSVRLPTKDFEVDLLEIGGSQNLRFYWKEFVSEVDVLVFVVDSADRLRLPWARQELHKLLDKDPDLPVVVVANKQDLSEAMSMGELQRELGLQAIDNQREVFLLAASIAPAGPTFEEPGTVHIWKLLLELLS

KRAS [2] = molecular target: T3, KRAS (Homo sapiens, UniProt P01116, Q61L); assay: as above
T3 construct: GFP-tagged, purified from HEK293T cells

ARL10 [3] = molecular target: T2, ARL10; assay: as above; remark: listed apart in the source
KRAS [4] = molecular target: T4, KRAS (Homo sapiens, UniProt P01116); assay: as above
T4 construct: GFP-tagged, purified from HEK293T cells

ARF1 = molecular target: T5, ARF1 (Homo sapiens, UniProt P84077); assay: as above
T5 construct: GFP-tagged, purified from HEK293T cells
T5 sequence (P84077 2-181): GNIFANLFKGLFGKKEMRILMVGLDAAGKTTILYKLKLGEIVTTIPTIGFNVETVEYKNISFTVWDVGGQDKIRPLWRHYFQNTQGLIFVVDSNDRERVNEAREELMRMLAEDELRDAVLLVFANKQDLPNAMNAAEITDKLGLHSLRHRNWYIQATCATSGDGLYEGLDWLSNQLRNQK

T1 sequence (Q969Q4 whole entry, the tested form may be a part): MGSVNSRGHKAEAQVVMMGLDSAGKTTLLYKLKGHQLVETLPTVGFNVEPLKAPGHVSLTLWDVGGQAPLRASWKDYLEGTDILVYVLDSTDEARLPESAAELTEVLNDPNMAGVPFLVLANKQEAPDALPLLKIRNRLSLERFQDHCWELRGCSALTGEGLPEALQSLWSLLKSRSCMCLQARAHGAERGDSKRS

Nc1nc2c(ncn2[C@@H]2O[C@H](COP(=O)(O)OP(=O)(O)OP(O)(O)=S)[C@@H](O)[C@H]2O)c(=O)[nH]1 [GTPγS]
Kd (ARL11): 1.53 nM

Nc1nc2c(ncn2[C@@H]2O[C@H](COP(=O)(O)OP(=O)(O)OP(=O)(O)O)[C@@H](O)[C@H]2O)c(=O)[nH]1 [GTP]
% GTP (ARL10 [1]): 29 % GTP
% GTP (KRAS [2]): 59 % GTP

Nc1nc2c(ncn2[C@@H]2O[C@H](COP(=O)(O)OP(=O)(O)O)[C@@H](O)[C@H]2O)c(=O)[nH]1 [GDP]
co-purified nucleotide by ion-pair reversed-phase HPLC (ARL10 [3]): WT ARL10 co-precipitated with both GDP and GTP
co-purified nucleotide by ion-pair reversed-phase HPLC (KRAS [4]): WT KRAS remained GDP loaded, as did WT ARF1
Kd (ARL11; read-out: Kd): 1730 nM
co-purified nucleotide by ion-pair reversed-phase HPLC (ARF1): WT KRAS remained GDP loaded, as did WT ARF1
